Assay results as given in patent publication US20050048001A1, “Pharmaceutical formulations of salmeterol” (priority 1999, published 2005).

Experiment: Solubility of forms of salmeterol in ethanol/HFA mixtures
Type: physicochemical
Settings: mixtures of ethanol/HFA134a and ethanol/HFA227; relative to racemic salmeterol xinafoate
Excerpt: FIG. 6: Chart to show the solubility of various forms of salmeterol in a number of different solvents.

SMILES	solubility
O=C(O)c1ccc2ccccc2c1O.OCc1cc(C(O)CNCCCCCCOCCCCc2ccccc2)ccc1O (centres unmarked) [R-salmeterol xinafoate]	significantly more soluble
OCc1cc(C(O)CNCCCCCCOCCCCc2ccccc2)ccc1O (stereo not drawn) [salmeterol base, 4-hydroxy-α^1-[[[6-(4-phenylbutoxy)hexyl]amino]methyl]-1,3-benzenedimethanol]	substantially more soluble
